PubChem BioAssay (NCI)
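Growth conditions: 96-well plates. Treatment: test compound, 48 hours, 5 concentrations. Analysis: linear interpolation between bracketing concentrations; unreached endpoints set to highest concentration. GI50 is the concentration that inhibits growth by half. TGI marks complete inhibition of growth.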

Legend:
Assay in all cases: NCI tumour cell line growth inhibition, 48 h
[1] = tested on: EKVX NSCLC
[2] = tested on: SNB-19 CNS
[3] = tested on: SW-620 colon
[4] = tested on: UACC-257 melanoma
[5] = tested on: U251 CNS
[6] = tested on: HCC-2998 colon
[7] = tested on: 786-0 renal
[8] = tested on: HS 578T breast
[9] = tested on: NCI-H23 lung
[10] = tested on: LOX IMVI melanoma
[11] = tested on: UO-31 renal
[12] = tested on: SF-539 CNS
[13] = tested on: NCI-H460 lung
[14] = tested on: SK-OV-3 ovarian
[15] = tested on: NCI-H226 lung
[16] = tested on: NCI-H522 lung
[17] = tested on: IGROV1 ovarian
[18] = tested on: OVCAR-4 ovarian
[19] = tested on: SF-268 CNS
[20] = tested on: HOP-92 NSCLC
[21] = tested on: HOP-62 NSCLC
[22] = tested on: K-562 leukemia
[23] = tested on: RPMI-8226 leukemia
[24] = tested on: HCT-116 colon
[25] = tested on: SR leukemia
[26] = tested on: TK-10 renal
[27] = tested on: CCRF-CEM leukemia
[28] = tested on: KM12 colon
[29] = tested on: SK-MEL-28 melanoma
[30] = tested on: CAKI-1 renal
[31] = tested on: HCT-15 colon
[32] = tested on: MOLT-4 leukemia
[33] = tested on: SNB-75 CNS
[34] = tested on: OVCAR-8 ovarian
[35] = tested on: HT29 colon
[36] = tested on: ACHN renal
[37] = tested on: MCF7 breast
[38] = tested on: COLO 205 colon
[39] = tested on: MALME-3M melanoma
[40] = tested on: SK-MEL-5 melanoma
[41] = tested on: PC-3 prostate
[42] = tested on: MDA-MB-435
[43] = tested on: T-47D breast
[44] = tested on: NCI/ADR-RES ovarian
[45] = tested on: BT-549 breast
[46] = tested on: A498 renal
[47] = tested on: SF-295 CNS
[48] = tested on: SK-MEL-2 melanoma
[49] = tested on: OVCAR-3 ovarian
[50] = tested on: UACC-62 melanoma
[51] = tested on: A549 NSCLC
[52] = tested on: DU-145 prostate
[53] = tested on: OVCAR-5 ovarian
[54] = tested on: HL-60(TB) leukemia
[55] = tested on: MDA-MB-231 breast
[56] = tested on: M14 melanoma

## Cc1cc(C)nc(SC2=C(Nc3cccc(Cl)c3)C(=O)N(Cc3ccccc3)C2=O)n1
[1]
  GI50: > 170 µM
  TGI: > 170 µM
[2]
  GI50: > 170 µM
  TGI: > 170 µM
[3]
  GI50: > 170 µM
  TGI: > 170 µM
[4]
  GI50: > 170 µM
  TGI: > 170 µM
[5]
  GI50: > 170 µM
  TGI: > 170 µM
[6]
  GI50: > 170 µM
  TGI: > 170 µM
[7]
  GI50: > 170 µM
  TGI: > 170 µM
[8]
  GI50: > 170 µM
  TGI: > 170 µM
[9]
  GI50: > 170 µM
  TGI: > 170 µM
[10]
  GI50: > 170 µM
  TGI: > 170 µM
[11]
  GI50: > 170 µM
  TGI: > 170 µM
[12]
  GI50: > 170 µM
  TGI: > 170 µM
[13]
  GI50: > 170 µM
  TGI: > 170 µM
[14]
  GI50: > 170 µM
  TGI: > 170 µM
[15]
  GI50: 0.729 µM
  TGI: 9.43 µM
[16]
  GI50: > 170 µM
  TGI: > 170 µM
[17]
  GI50: > 170 µM
  TGI: > 170 µM
[18]
  GI50: > 170 µM
  TGI: > 170 µM
[19]
  GI50: > 170 µM
  TGI: > 170 µM
[20]
  GI50: > 170 µM
  TGI: > 170 µM
[21]
  GI50: 42.3 µM
  TGI: > 170 µM
[22]
  GI50: 5.25 µM
  TGI: > 170 µM
[23]
  GI50: > 170 µM
  TGI: > 170 µM
[24]
  GI50: > 170 µM
  TGI: > 170 µM
[25]
  GI50: > 170 µM
  TGI: > 170 µM
[26]
  GI50: > 170 µM
  TGI: > 170 µM
[27]
  GI50: > 170 µM
  TGI: > 170 µM
[28]
  GI50: > 170 µM
  TGI: > 170 µM
[29]
  GI50: > 170 µM
  TGI: > 170 µM
[30]
  GI50: > 170 µM
  TGI: > 170 µM
[31]
  GI50: > 170 µM
  TGI: > 170 µM
[32]
  GI50: > 170 µM
  TGI: > 170 µM
[33]
  GI50: > 170 µM
  TGI: > 170 µM
[34]
  GI50: > 170 µM
  TGI: > 170 µM
[35]
  GI50: > 170 µM
  TGI: > 170 µM
[36]
  GI50: > 170 µM
  TGI: > 170 µM
[37]
  GI50: > 170 µM
  TGI: > 170 µM
[38]
  GI50: > 170 µM
  TGI: > 170 µM
[39]
  GI50: > 170 µM
  TGI: > 170 µM
[40]
  GI50: > 170 µM
  TGI: > 170 µM
[41]
  GI50: > 170 µM
  TGI: > 170 µM
[42]
  GI50: > 170 µM
  TGI: > 170 µM
[43]
  GI50: > 170 µM
  TGI: > 170 µM
[44]
  GI50: > 170 µM
  TGI: > 170 µM
[45]
  GI50: > 170 µM
  TGI: > 170 µM
[46]
  GI50: > 170 µM
  TGI: > 170 µM
[47]
  GI50: > 170 µM
  TGI: > 170 µM
[48]
  GI50: > 170 µM
  TGI: > 170 µM
[49]
  GI50: > 170 µM
  TGI: > 170 µM
[50]
  GI50: 34.9 µM
  TGI: > 170 µM
[51]
  GI50: > 170 µM
  TGI: > 170 µM
[52]
  GI50: > 170 µM
  TGI: > 170 µM
[53]
  GI50: > 170 µM
  TGI: > 170 µM
[54]
  GI50: > 170 µM
  TGI: > 170 µM
[55]
  GI50: > 170 µM
  TGI: > 170 µM
[56]
  GI50: 39.6 µM
  TGI: > 170 µM
